One compound from US20230104487A1, “11-(4-CHLOROPHENYL)-4-(2,3-DIHYDRO-1H-INDOLE-1-CARBONYL)-3,11-DIMETHYL-5,10,DIOXATRICYCLO[7.4.0.0,2,6,]TRIDECA-1,3,6,8-TETRAEN-13-ONE AND DERIVATIVES AS DESTABILIZER OF CRY1 FOR THE TREATMENT OF CIRCADIAN RHYTHM ASSOCIATED DISEASES AND DISORDERS” (KOC UNIVERSITESI, priority 2019, published 2023) can be followed below.

In the assay the target is T1, CRY1-T5 (PHR domain of CRY1) (Mus musculus, UniProt P97784).
T1 construct: CRY1-T5 (the lack of 100 amino acids from C-terminal end); expressed in transfected cells; host or cells: HEK293T (lysate)
T1 sequence (P97784 1-506 limits assumed): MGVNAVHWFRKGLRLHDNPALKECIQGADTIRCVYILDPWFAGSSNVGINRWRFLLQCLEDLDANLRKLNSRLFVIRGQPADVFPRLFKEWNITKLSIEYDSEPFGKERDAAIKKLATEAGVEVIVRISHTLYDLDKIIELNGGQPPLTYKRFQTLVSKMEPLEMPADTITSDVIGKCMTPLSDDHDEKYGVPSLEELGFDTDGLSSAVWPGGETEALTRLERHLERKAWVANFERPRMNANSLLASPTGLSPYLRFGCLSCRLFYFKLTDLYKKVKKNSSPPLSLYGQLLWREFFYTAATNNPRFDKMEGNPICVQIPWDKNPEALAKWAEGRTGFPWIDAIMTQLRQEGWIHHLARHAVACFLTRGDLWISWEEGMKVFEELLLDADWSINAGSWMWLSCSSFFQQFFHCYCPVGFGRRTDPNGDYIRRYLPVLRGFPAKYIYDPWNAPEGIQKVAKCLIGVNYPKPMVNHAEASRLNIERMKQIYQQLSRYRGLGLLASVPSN
In words: Pull-down assay with biotinylated molecule, CRY1-T5. The class given is binding. The following applies: CRY1 lacking 100 C-terminal amino acids. As to the method: 10 μg of Cry1-pcDNA4, Cry2-pcDNA4 or Cry1-T5-pcDNA4 plasmids expressing His and Myc at the C-terminal of CRYs were transfected to HEK293T cell. After 48 h of transfection cells were harvested and lysed in lysis buffer (50 mM Tris pH 7.4, 2 mM EDTA, 1 mM MgCl2, 0.2% NP-40 (v/v), 0.1% sodium deoxycholate (w/v), 1 mM sodium orthovanadate, 1 mM sodium fluoride, and protease inhibitor cocktail (Thermo Scientific)). Lysates were incubated for 10 minutes on ice then mixed gently and incubated for another 10 minutes on ice. Then lysate was centrifuged for 10 minutes at 7000 g at 4° C. 5% of the supernatant was kept for input analysis. Remaining supernatant was divided to three and mixed with 2×binding buffer (100 mM Tris-HCl pH 7.4, 300 mM NaCl, 0.2% NP-40 (v/v), 2 mM sodium orthovanadate, 2 mM sodium fluoride, and protease inhibitor) with 1:1 ratio, incubated with rotation having either of these: a) DMSO, b) biotinylated molecule, c) biotinylated molecule and the competitor for 2 h. During this period NeutrAvidin Agarose resin (Thermo Scientific) was equilibrated with lysis buffer by mixing for 5 minutes via rotation at 4° C. three times. After each mix period, resins were centrifuged at 2500 g at 4° C. for 2 minutes and supernatant was discarded. […] Pulled-down samples were analyzed via western blot.

As for `Cc1c(C(=O)N2CCc3ccccc32)oc2ccc3c(c12)C(=O)CC(C)(c1ccc(Cl)cc1)O3` (stereo not shown) [FORMULA I, 11-(4-chlorophenyl)-4-(2,3-dihydro-1H-indole-1-carbonyl)-3,11-dimethyl-5,10,dioxatricyclo[7.4.0.0,2,6,]trideca-1,3,6,8-tetraen-13-one], the “binding to PHR domain (CRY1-T5 pull-down)” value is recorded as “bound to the PHR domain”.
